Source: patent US10954228B2 (NATIONAL INSTITUTES OF HEALTH, UNITED STATES DEPARTMENT OF …, priority 2016, dated 2021)
pIC50: −log10 of the molar value.

Legend:
Human LDHA = Human LDHA (Homo sapiens (Human), UniProt P00338); assay: human LDHA primary biochemical assay; details: biochemical LDHA inhibitory activity, assay of Example 1; activity level classes defined in nM
How it was run: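 Human LDHA at 2 nM with 0.06 mM NADH and 0.2 mM sodium pyruvate in 200 mM Tris HCl pH 7.4, 100 μM EDTA, 0.01% TWEEN-20 (final). NADH consumption coupled to resazurin/diaphorase (0.037 mM; 0.133 mg/mL); inhibition read by fluorescence.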

MiaPaCa2 cells = assay: cell-based HT lactate assay by colorimetric/fluorometric detection (cellular inhibition of lactate production)
Protocol: This example describes a cell-based metabolite assay by colorimetric/fluorometric detection employed in the characterization of a compound of formula (I) in an embodiment of the invention.
Cell-based HT Lactate assay is a miniaturized Biovision Lactate Colorimetric/Fluorometric Assay Kit (Cat #K607-100). The assay is roughly a 3.5 hour assay run in a 1536 plate format. Cell number optimization should be run for each cell line to achieve an optimal number in which lactate production equals roughly 90% of the standard curve range. Cell number per well optimization has been performed with the following cell lines: MiaPaCa2—500 cells/well, SNU398—500 cells/well, and P493—500 cells/well.

[1] = Homo sapiens, MIA PaCa-2, assay of Example 6

Cc1ncc(C#Cc2cc(-c3nn(-c4nc(C(=O)O)cs4)c(CC4CC4)c3Cc3ccc(S(N)(=O)=O)c(F)c3)ccc2F)s1 [Compound 111, 2-(5-(cyclopropylmethyl)-3-(4-fluoro-3-((2-methylthiazol-5-yl)ethynyl)phenyl)-4-(3-fluoro-4-sulfamoylbenzyl)-1H-pyrazol-1-yl)thiazole-4-carboxylic acid]
IC50 (Human LDHA): < 100 nM
pIC50 (MiaPaCa2 cells; [1]): > 6.00

Cc1ccc(C#Cc2cccc(-c3nn(-c4nc(C(=O)O)cs4)c(CC4CC4)c3Cc3ccc(S(N)(=O)=O)c(F)c3)c2)s1 [Compound 112, 2-(5-(cyclopropylmethyl)-4-(3-fluoro-4-sulfamoylbenzyl)-3-(3-((5-methylthiophen-2-yl)ethynyl)phenyl)-1H-pyrazol-1-yl)thiazole-4-carboxylic acid]
IC50 (Human LDHA): < 100 nM
pIC50 (MiaPaCa2 cells; [1]): > 6.00

Cc1ccc(C#Cc2cc(-c3nn(-c4nc(C(=O)O)cs4)c(CCC4CC4)c3Cc3ccc(S(N)(=O)=O)c(F)c3)ccc2F)s1 [Compound 113, 2-(5-(2-cyclopropylethyl)-3-(4-fluoro-3-((5-methylthiophen-2-yl)ethynyl)phenyl)-4-(3-fluoro-4-sulfamoylbenzyl)-1H-pyrazol-1-yl)thiazole-4-carboxylic acid]
IC50 (Human LDHA): < 100 nM
pIC50 (MiaPaCa2 cells; [1]): > 6.00

Cc1cnc(C#Cc2cc(-c3nn(-c4nc(C(=O)O)cs4)c(CC4CC4)c3Cc3ccc(S(N)(=O)=O)c(F)c3)ccc2F)s1 [Compound 114, 2-(5-(cyclopropylmethyl)-3-(4-fluoro-3-((5-methylthiazol-2-yl)ethynyl)phenyl)-4-(3-fluoro-4-sulfamoylbenzyl)-1H-pyrazol-1-yl) thiazole-4-carboxylic acid]
IC50 (Human LDHA): < 100 nM
pIC50 (MiaPaCa2 cells; [1]): > 6.00

Cc1ccc(C#Cc2cccc(-c3nn(-c4nc(C(=O)O)cs4)c(CCC4CC4)c3Cc3ccc(S(N)(=O)=O)c(F)c3)c2)s1 [Compound 115, 2-(5-(2-cyclopropylethyl)-4-(3-fluoro-4-sulfamoylbenzyl)-3-(3-((5-methylthiophen-2-yl)ethynyl)phenyl)-1H-pyrazol-1-yl)thiazole-4-carboxylic acid]
IC50 (Human LDHA): < 100 nM
pIC50 (MiaPaCa2 cells; [1]): > 6.00

NS(=O)(=O)c1ccc(Cc2c(-c3cccc(C#Cc4ccc(C5CC5)s4)c3)nn(-c3nc(C(=O)O)cs3)c2CC2CC2)cc1F [Compound 117, 2-(5-(cyclopropylmethyl)-3-(3-((5-cyclopropylthiophen-2-yl)ethynyl)phenyl)-4-(3-fluoro-4-sulfamoylbenzyl)-1H-pyrazol-1-yl)thiazole-4-carboxylic acid]
IC50 (Human LDHA): 100 to 1000 nM
pIC50 (MiaPaCa2 cells; [1]): > 6.00

NS(=O)(=O)c1ccc(Cc2c(-c3cccc(C#Cc4ccc(Cl)s4)c3)nn(-c3nc(C(=O)O)cs3)c2CC2CC2)cc1F [Compound 118, 2-(3-(3-((5-chlorothiophen-2-yl)ethynyl)phenyl)-5-(cyclopropylmethyl)-4-(3-fluoro-4-sulfamoylbenzyl)-1H-pyrazol-1-yl)thiazole-4-carboxylic acid]
IC50 (Human LDHA): < 100 nM
pIC50 (MiaPaCa2 cells; [1]): > 6.00

Cc1ccc(/C=C/c2cccc(-c3nn(-c4nc(C(=O)O)cs4)c(CC4CC4)c3Cc3ccc(S(N)(=O)=O)c(F)c3)c2)s1 [Compound 119, (E)-2-(5-(cyclopropylmethyl)-4-(3-fluoro-4-sulfamoylbenzyl)-3-(3-(2-(5-methylthiophen-2-yl)vinyl)phenyl)-1H-pyrazol-1-yl)thiazole-4-carboxylic acid]
IC50 (Human LDHA): < 100 nM
pIC50 (MiaPaCa2 cells; [1]): > 6.00

Cc1ccsc1C#Cc1cccc(-c2nn(-c3nc(C(=O)O)cs3)c(CC3CC3)c2Cc2ccc(S(N)(=O)=O)c(F)c2)c1 [Compound 120, 2-(5-(cyclopropylmethyl)-4-(3-fluoro-4-sulfamoylbenzyl)-3-(3-((3-methylthiophen-2-yl)ethynyl)phenyl)-1H-pyrazol-1-yl) thiazole-4-carboxylic acid]
IC50 (Human LDHA): < 100 nM
pIC50 (MiaPaCa2 cells; [1]): > 6.00

NS(=O)(=O)c1ccc(Cc2c(-c3cccc(C#Cc4ccc(C(F)F)s4)c3)nn(-c3nc(C(=O)O)cs3)c2CC2CC2)cc1F [Compound 121, 2-(5-(cyclopropylmethyl)-3-(3-((5-(difluoromethyl)thiophen-2-yl)ethynyl)phenyl)-4-(3-fluoro-4-sulfamoylbenzyl)-1H-pyrazol-1-yl)thiazole-4-carboxylic acid]
IC50 (Human LDHA): < 100 nM
pIC50 (MiaPaCa2 cells; [1]): > 6.00

Cc1cnc(C#Cc2cccc(-c3nn(-c4nc(C(=O)O)cs4)c(CC4CC4)c3Cc3ccc(S(N)(=O)=O)c(F)c3)c2)o1 [Compound 122, 2-(5-(cyclopropylmethyl)-4-(3-fluoro-4-sulfamoylbenzyl)-3-(3-((5-methyloxazol-2-yl)ethynyl)phenyl)-1H-pyrazol-1-yl)thiazole-4-carboxylic acid]
IC50 (Human LDHA): < 100 nM
pIC50 (MiaPaCa2 cells; [1]): > 6.00

Cc1ccc(C#Cc2cccc(-c3nn(-c4nc(C(=O)O)cs4)c(CC4(C)CC4)c3Cc3ccc(S(N)(=O)=O)c(F)c3)c2)s1 [Compound 123, 2-(4-(3-fluoro-4-sulfamoylbenzyl)-5-((1-methylcyclopropyl)methyl)-3-(3-((5-methylthiophen-2-yl)ethynyl)phenyl)-1H-pyrazol-1-yl)thiazole-4-carboxylic acid]
IC50 (Human LDHA): < 100 nM
pIC50 (MiaPaCa2 cells; [1]): > 6.00

NS(=O)(=O)c1ccc(Cc2c(-c3cccc(C#Cc4ccc(C(F)(F)F)s4)c3)nn(-c3nc(C(=O)O)cs3)c2CC2CC2)cc1F [Compound 124, 2-(5-(cyclopropylmethyl)-4-(3-fluoro-4-sulfamoylbenzyl)-3-(3-((5-(trifluoromethyl)thiophen-2-yl)ethynyl)phenyl)-1H-pyrazol-1-yl)thiazole-4-carboxylic acid]
IC50 (Human LDHA): 100 to 1000 nM
pIC50 (MiaPaCa2 cells; [1]): > 6.00

Cc1cc(C)c(C#Cc2cccc(-c3nn(-c4nc(C(=O)O)cs4)c(CC4CC4)c3Cc3ccc(S(N)(=O)=O)c(F)c3)c2)s1 [Compound 125, 2-(5-(cyclopropylmethyl)-3-(3-((3,5-dimethylthiophen-2-yl)ethynyl)phenyl)-4-(3-fluoro-4-sulfamoylbenzyl)-1H-pyrazol-1-yl) thiazole-4-carboxylic acid]
IC50 (Human LDHA): < 100 nM
pIC50 (MiaPaCa2 cells; [1]): > 6.00

CC(C)c1ccc(C#Cc2cccc(-c3nn(-c4nc(C(=O)O)cs4)c(CC4CC4)c3Cc3ccc(S(N)(=O)=O)c(F)c3)c2)s1 [Compound 127, 2-(5-(cyclopropylmethyl)-4-(3-fluoro-4-sulfamoylbenzyl)-3-(3-((5-isopropylthiophen-2-yl)ethynyl)phenyl)-1H-pyrazol-1-yl)thiazole-4-carboxylic acid]
IC50 (Human LDHA): 100 to 1000 nM
pIC50 (MiaPaCa2 cells; [1]): > 6.00

Cc1ccc(C#Cc2cccc(-c3nn(-c4nc(C(=O)O)cs4)c(CC4CC4)c3Cc3ccc(S(N)(=O)=O)c(F)c3)c2)o1 [Compound 129, 2-(5-(cyclopropylmethyl)-4-(3-fluoro-4-sulfamoylbenzyl)-3-(3-((5-methylfuran-2-yl)ethynyl)phenyl)-1H-pyrazol-1-yl)thiazole-4-carboxylic acid]
IC50 (Human LDHA): < 100 nM
pIC50 (MiaPaCa2 cells; [1]): > 6.00

Cc1ccc(C2CC2c2cccc(-c3nn(-c4nc(C(=O)O)cs4)c(CC4CC4)c3Cc3ccc(S(N)(=O)=O)c(F)c3)c2)s1 (centres unmarked) [Compound 130, 2-(5-(cyclopropylmethyl)-4-(3-fluoro-4-sulfamoylbenzyl)-3-(3-(2-(5-methylthiophen-2-yl)cyclopropyl)phenyl)-1H-pyrazol-1-yl)thiazole-4-carboxylic acid]
IC50 (Human LDHA): < 100 nM
pIC50 (MiaPaCa2 cells; [1]): > 6.00

Cc1ccc(C#Cc2cccc(-c3nn(-c4nc(C(=O)O)cs4)c(C4CC45CC5)c3Cc3ccc(S(N)(=O)=O)c(F)c3)c2)s1 (centres unmarked) [Compound 131, 2-(4-(3-fluoro-4-sulfamoylbenzyl)-3-(3-((5-methylthiophen-2-yl)ethynyl)phenyl)-5-(spiro[2.2]pentan-1-yl)-1H-pyrazol-1-yl)thiazole-4-carboxylic acid]
IC50 (Human LDHA): < 100 nM
pIC50 (MiaPaCa2 cells; [1]): > 6.00

Cc1ccc([C@H]2C[C@@H](c3cccc(-c4nn(-c5nc(C(=O)O)cs5)c(CC5CC5)c4Cc4ccc(S(N)(=O)=O)c(F)c4)c3)C2)s1 [Compound 132, 2-(5-(cyclopropylmethyl)-4-(3-fluoro-4-sulfamoylbenzyl)-3-(3-((cis)-3-(5-methylthiophen-2-yl)cyclobutyl)phenyl)-1H-pyrazol-1-yl)thiazole-4-carboxylic acid]
IC50 (Human LDHA): < 100 nM
pIC50 (MiaPaCa2 cells; [1]): > 6.00

Cc1ccc(C2CC(c3cccc(-c4nn(-c5nc(C(=O)O)cs5)c(CC5CC5)c4Cc4ccc(S(N)(=O)=O)c(F)c4)c3)C2)s1 (centres unmarked) [Compound 133, 2-(5-(cyclopropylmethyl)-4-(3-fluoro-4-sulfamoylbenzyl)-3-(3-(3-(5-methylthiophen-2-yl)cyclobutyl)phenyl)-1H-pyrazol-1-yl)thiazole-4-carboxylic acid]
IC50 (Human LDHA): < 100 nM
pIC50 (MiaPaCa2 cells; assay of Example 6): > 6.00

Cc1ccc(-c2cc(-c3nn(-c4nc(C(=O)O)cs4)c(CC4CC4)c3Cc3ccc(S(N)(=O)=O)c(F)c3)ccc2F)cc1F [Compound 137, 2-(5-(cyclopropylmethyl)-3-(3′,6-difluoro-4′-methyl-[1,1′-biphenyl]-3-yl)-4-(3-fluoro-4-sulfamoylbenzyl)-1H-pyrazol-1-yl)thiazole-4-carboxylic acid]
IC50 (Human LDHA): < 100 nM
pIC50 (MiaPaCa2 cells; [1]): > 6.00

NS(=O)(=O)c1ccc(Cc2c(-c3ccc(F)c(-c4ccc(C(F)(F)F)cc4)c3)nn(-c3nc(C(=O)O)cs3)c2CC2CC2)cc1F [Compound 138, 2-(5-(cyclopropylmethyl)-3-(6-fluoro-4′-(trifluoromethyl)-[1,1′-biphenyl]-3-yl)-4-(3-fluoro-4-sulfamoylbenzyl)-1H-pyrazol-1-yl)thiazole-4-carboxylic acid]
IC50 (Human LDHA): < 100 nM
pIC50 (MiaPaCa2 cells; [1]): > 6.00
